From article PMC8583760, “Pharmacokinetic interaction between rhynchopylline and pellodendrine via CYP450 enzymes and P-gp” (Pharmaceutical Biology, 2021) come the findings set out here.

In one experiment the target is T1, CYP1A2 (Rattus norvegicus, UniProt P04799).
T1 construct: native full-length enzyme in rat liver microsomes
T1 sequence (P04799 2-513): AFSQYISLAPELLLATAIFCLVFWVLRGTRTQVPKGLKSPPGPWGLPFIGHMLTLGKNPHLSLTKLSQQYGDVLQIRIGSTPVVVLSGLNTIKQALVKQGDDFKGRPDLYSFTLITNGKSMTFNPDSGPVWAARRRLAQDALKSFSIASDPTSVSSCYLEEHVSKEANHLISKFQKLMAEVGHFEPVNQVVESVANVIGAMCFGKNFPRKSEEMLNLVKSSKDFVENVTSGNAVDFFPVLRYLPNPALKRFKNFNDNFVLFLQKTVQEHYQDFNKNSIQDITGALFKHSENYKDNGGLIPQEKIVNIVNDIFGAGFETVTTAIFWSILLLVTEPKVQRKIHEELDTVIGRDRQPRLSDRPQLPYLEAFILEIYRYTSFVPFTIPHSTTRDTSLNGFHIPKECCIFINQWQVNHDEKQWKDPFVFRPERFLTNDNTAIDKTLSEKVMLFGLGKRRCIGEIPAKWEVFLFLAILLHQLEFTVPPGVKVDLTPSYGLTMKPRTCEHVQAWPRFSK
Description: CYP probe substrate depletion in rat liver microsomes, HPLC. The experiment is classed as biochemical. Particulars: typical CYP1A2 substrate (not named); 0-100 μM inhibitor. (In general: Microsomes from liver hold many membrane-bound enzymes, among them those of drug oxidation.)

The next experiment relates to T2, CYP2C9.
T2 construct: gene Cyp2c11; native enzyme activity in rat liver microsomes
The experiment is described as above. The experiment is classed as biochemical. The conditions noted are these: typical CYP2C9 substrate (not named); 0-100 μM inhibitor.

Structures are written as SMILES.

As to `COc1cc2c(cc1O)C[C@H]1c3cc(O)c(OC)cc3CC[N@@+]1(C)C2` [pellodendrine], the 50% inhibitory concentration (IC50) (as a rule, the concentration at which inhibition is half-maximal) amounted to 23 µM against CYP1A2 and 16.2 µM in the experiment on CYP2C9.
